The record followed here is US20170273906A1, “TARGETED LIPOSOMES ENCAPSULATING IRON COMPLEXES AND THEIR USES” (Ramot at Tel-Aviv University Ltd., priority 2014, published 2017).

One data set has as its system MDA-MB-231. Briefly: Cell viability (XTT and SRB), MDA-MB-231. The format is cell-based, human. To be noted: 24 hours. How it is done: (§1) For evaluating the effect of Hemin/HA-L on cancer cells, the liposomes prepared as described above were used. The only difference was in the amount of dry liposome forming lipid powder used in the “cancer aspect”. Specifically, in the following anti-cancer aspect, for rehydration of the hemin, higher amounts of the powder were used to reach a liposome concentration of 10-20 mM lipid.
(§2) The impact of hemin/HA-L at high liposome concentrations on cell viability was tested on five cell lines and compared to the same dose of free hemin, as well as to the same liposomal dose of drug-free HA-L.
(§3) Three of the cell lines originated from human cancers: MDA-MB-231 and MCF-7 from breast cancer and NCI/ADR-Res (abbreviated to NAR) from ovarian cancer. The RAW264.7 cell line is from mouse peritoneal macrophages, and the COS-7 cell line is noncancerous. […] MCF-7 is known to be sensitive to chemotherapeutic drugs, whereas NAR is known to be highly resistant to chemotherapeutic drugs, in the multi-drug resistant mechanism operating by the extrusion pumps of the ABC superfamily of transporters.
(§4) The Results of treating the five cell lines with hemin/HA-L, hemin, drug-free HA-L or control (i.e. untreated) for 24 hours, are shown in Tables 2 and 3, for hemin doses (free or liposomal) of 25 μg/ml and 50 μg/ml, respectively. Cell viability was evaluated by two independent methods: XTT and SRB.
In general terms: Tetrazolium dyes change colour on reduction, which living cells bring about.

A further data set has as its system NCI/ADR-Res. Kind of data set: Cell viability (XTT and SRB), NCI/ADR-Res. In kind it is cell-based, human. To be noted: 24 hours. How it is done: as §1, §2, §3, §4
To this end, NCI/ADR-Res (NAR) cells were first tested with drug-free regular liposomes and drug-free HA-L, at three liposome doses—4 mM, 10 mM, and 21 mM—lipid, with untreated cells serving as controls. The experiments were performed in 24-well plates, treatment was for 24 hours, and upon termination the active intracellular HO-1 was determined using a commercial kit and following the kit's instructions. Parallel wells were used to evaluate cell viability using the SRB method. The results are presented in FIG. 14 (average of 6 wells; Statistical significance was evaluated by student t test (two tail, unequal variance) for RL vs. control and for HA-L vs. control. *p<0.05, **p<0.003, ***p<0.0001).

The test system of the next data set is MCF-7. Briefly: Cell viability (XTT and SRB), MCF-7. The format is cell-based, human. Particulars: 24 hours. Here is the method:
as §1, §2, §3, §4

Data set [1] has as its system HO-1. Kind of data set: HO-1 expression in LPS-activated macrophages. In kind it is cell-based, mouse. To be noted: LPS 24 hours, then three days in culture; FIG. 1E. Here is the method:
III. Further, the effect of hemin/HA-LP on TNF-α secretion levels from LPS stimulated RAW264.7 macrophages, on IL-12 cytokine secretion from peritoneal macrophages stimulated with LPS for 24 hours, and expression of HO-1 expression were measured. In addition, the effect of hemin/HA-L on macrophage inflammatory and anti-inflammatory properties was evaluated. First, TNF-α secretion levels from LPS stimulated RAW264.7 macrophages was measured (FIG. 1C, “LP” denoting liposome). […] Next, mouse peritoneal macrophages were stimulated with LPS for 24 hours. After LPS removal, the cells were treated with either hemin/HA-LP, empty HA-LP, free hemin or saline.

The test system of data set [2] is LPS stimulated RAW264.7 macrophages. Kind of data set: TNF-α secretion from LPS stimulated macrophages. The format is cell-based, mouse. Particulars: hemin dose of 50 μg/ml, FIG. 1C. Here is the method: III. Further, the effect of hemin/HA-LP on TNF-α secretion levels from LPS stimulated RAW264.7 macrophages, on IL-12 cytokine secretion from peritoneal macrophages stimulated with LPS for 24 hours, and expression of HO-1 expression were measured. In addition, the effect of hemin/HA-L on macrophage inflammatory and anti-inflammatory properties was evaluated. First, TNF-α secretion levels from LPS stimulated RAW264.7 macrophages was measured (FIG. 1C, “LP” denoting liposome). […] Next, mouse peritoneal macrophages were stimulated with LPS for 24 hours. After LPS removal, the cells were treated with either hemin/HA-LP, empty HA-LP, free hemin or saline. […] The anti-inflammatory activity of hemin was evaluated in vitro, in the established cell line of mouse peritoneal macrophages RAW264.7. Anti-inflammatory treatment was measured by reduction in secretion of the pro-inflammatory cytokine TNF-α, in LPS-activated macrophages.

The test system of another data set is COS-7. Kind of data set: Cell viability (XTT and SRB), COS-7. The format is cell-based. Particulars: 24 hours. How it is done:
as §1, §2, §3, §4

Data set [3] has as its system Mouse Model of Myocardial Infarction (MI). Kind of data set: Histological analysis of infarct size (hematoxylin and eosin), 30 days after MI. In kind it is in vivo. To be noted: FIG. 13E. An excerpt: (§5) Twelve week-old female Balb/C mice (20 gr.) were anesthetized with 2% isoflurane, and were surgically opened by left thoractomy through the fourth intercostal space to expose the beating heart. To induce MI, the left main coronary artery was permanently occluded with an intramural suture.
The imaging results of treatment with Hemin/HA-L (FIG. 13A), free hemin (FIG. 13B), empty liposomes (FIG. 13C) and saline (FIG. 13D) were confirmed by histological analysis, 30 days after MI. […] Noticeably, empty liposomes and free hemin treatments were also associated with a decreased scar tissue (by 40% and 43%), compared with saline (FIG. 13E). Overall, the presented findings indicate that hemin/HA-L is a promising agent to modulate and resolve inflammation following MI by enhancing healing and repair processes.

For data set [4], the system named is LPS-activated RAW264.7 cells. Kind of data set: In vitro viability assay (XTT/SRB), LPS-activated macrophages. The format is cell-based, mouse. Particulars: hemin dose of 50 μg/ml and liposome dose of 4 mM lipid, 24 hours, XTT; FIG. 7. Here is the method: I. RAW264.7 cells were seeded onto 96 well plates, and the experiments were initiated 24 hours later, at semi-confluency. The regular (serum supplemented) cell growth media was replaced by the same media but containing one of the following treatments: free hemin, drug-free RL-MLV, HA-MLV, hemin-encapsulating RL-MLV and hemin-encapsulating HA-MLV. Wells receiving the regular cell growth media without any addition served as controls. Incubation time was 24 hours, at the end of which the experiment was terminated and cell viability was determined by the XTT or SRB methods. Both methods yielded similar results.
Cell viability was determined using XTT method. […] In addition, cell viability was also determined by the SRB method, which is independent of mitochondrial enzymes (results not shown). Both methods gave similar results.

In another data set the test system is peritoneal macrophages. Briefly: Peritoneal macrophage profile following injection after MI (FACS). In kind it is in vivo, mouse. Particulars: IP one day after MI, three days later.
Description: as §5
To determine liposomal hemin effect on peritoneal and cardiac macrophages, hemin was formulated in HA-L. Hemin encapsulation efficiency was ˜100% at therapeutic dose levels. Mice were allocated with hemin/HA-L (2 mg hemin/kg body and 50 mg lipid/kg body), empty liposomes (HA-targeted, 50 mg lipid/kg body), free hemin (2 mg/kg body) or saline (100 μl) by intra-peritoneal injection one day after MI. Three days later, mice were euthanized and peritoneal macrophages were aspirated from abdominal cavity. Cells were counted and stained with an anti-mouse F4/80 (as general macrophage marker) and with either PE-conjugated anti-mouse CD86 (as M1 marker) or FITC-conjugated anti-mouse mannose receptor (CD206; as M2 marker). Cells were analyzed by FACS Calibur cytometer using CellQuest™ software.
Following hemin/HA-L (2 mg hemin/kg body and 50 mg lipid/kg body) injection into mice peritoneum (IP), macrophages from the abdominal cavity were isolated and analyzed by flow cytometry.

The next data set concerns NAR xenografts. Kind of data set: Mouse tumor model, tumor volume. The format is in vivo. To be noted: tail vein, 3 injections a week apart; 2 mpk hemin and/or 125 mpk lipid; follow up two weeks after last injection; FIG. 17B. How it is done: The experimental details and design were as follows: Hsd:Athymic Nude Foxn1nu female mice (8 weeks old, 25 gr.) were inoculated with NAR cells (6.5*10^6 cells/100 μl HBSS), to the flank. Treatment was initiated at tumor volumes of 150-180 mm^3. There were three treatment groups and in all three the solvent was HBSS: (1) mice injected with drug-free HA-L^hi at the dose of 125 mpk lipid. (2) mice injected with free hemin at the dose of 2 mpk and (3) mice injected with hemin/HA-L^hi at the respective doses of 2 mpk (hemin) and 125 mpk (lipid). The injections were to the tail vein, and the injection volume was 200 μl. Each mice was given 3 injections spaced a week apart. Follow up was by animal weight and tumor volume (measured by caliper), up to two weeks after the last injection.

The test system of data set [5] is HO-1. Briefly: Intracellular concentration of active HO-1 in NAR cells (commercial kit). Particulars: hemin 25 μg/ml (free, or encapsulated in 2 mM lipid), 24 hours; FIG. 15. The format is cell-based, human. Here is the method: The experiments were performed in 24-well plates, treatment was for 24 hours, and upon termination the active intracellular HO-1 was determined using a commercial kit and following the kit's instructions. Parallel wells were used to evaluate cell viability using the SRB method. The results are presented in FIG. 14 (average of 6 wells; Statistical significance was evaluated by student t test (two tail, unequal variance) for RL vs. control and for HA-L vs. control. *p<0.05, **p<0.003, ***p<0.0001).
In both cases, as also shown in FIG. 15, cell viability (line crossing open circles) was intact.

Another data set has as its system RAW264.7. Briefly: Cell viability (XTT and SRB), RAW264.7. In kind it is cell-based, mouse. To be noted: hemin 50 μg/ml, 24 hours. Here is the method: as §1, §2, §3, §4

Turning to hemin [Free hemin], the “Cell Viability” value in the data set on MDA-MB-231 (hemin 25 μg/ml) is 92(±13) %; in the data set with MDA-MB-231 (hemin 50 μg/ml) it was 91(±8) %; in the data set on NCI/ADR-Res (hemin 25 μg/ml), 120(±7) %; in the data set with NCI/ADR-Res (hemin 50 μg/ml) it was 110(±6) %; in the data set on MCF-7 (hemin 25 μg/ml), 104(±4) %; in the data set with MCF-7 (hemin 50 μg/ml), 108(±5) %. The “Cell Viability” value in the data set on COS-7 (hemin 25 μg/ml) is 99(±3) %; with COS-7 (hemin 50 μg/ml), 91(±3) %; in data set [4], “did not significantly affected cell viability”; in the data set with RAW264.7, 119(±17) %. The “cell viability (SRB)” value in the data set on NCI/ADR-Res (free hemin 25 μg/ml or drug-free HA-L 2 mM lipid, FIG. 15) is given as “intact”. In addition, the “HO-1 expression within macrophages” value in the data set on HO-1 [1] was “highest HO-1 expression”. Further, the TNF-α secretion entry in data set [2] is “no effect”; in [2] (listed as free hemin), “high levels of TNF-α”. In addition, the “reduction of infarct size (scar tissue) compared with saline” value in data set [3] is reported as 43%. The “M2 (anti-inflammatory) peritoneal macrophages” value with peritoneal macrophages (2 mg hemin/kg body and/or 50 mg lipid/kg body, FIG. 8C) was 6.4±1.5%. Also, in the data set with peritoneal macrophages (FIG. 8D), the “M2/M1, peritoneal macrophages” value was found to be 0.08±0.03. Also, the tumor volume result in the data set on NAR xenografts was “slight decrease”. The “intracellular levels of active HO-1” value in the data set with HO-1 [5] is on record as “small, but significant increase”.
